From patent US11168249B1, “Luminescent polydentate polycyclic compounds for metal ions” (priority 2012, dated 2021)
Entries after “also recorded” stand apart in the source; their conditions may differ.

Assays:
Assay type in all cases: physicochemical
[1] = Normalized emission spectra of D1 (L) and complexes in dry acetonitrile (FIG. 22); conditions: D1 0.00013 M, metal ion 0.00012 M
Procedure: The concentration of D1 was 0.00013 M, and the metal ion concentration was 0.00012 M. The metal ions are added as perchlorates or acetates. The y-axis is luminescence intensity, and the x-axis is wavelength in nanometers. The free ligand L had maximum emission at 470 nm. The L+Ca(II) complex had maximum emission at 526 nm. The L+Zn(II) complex had maximum emission at 581 nm. The L+trifluoroacetate complex had maximum emission at 592 nm. The L+H^+ complex had maximum emission at 691 nm. The L+H^+ complex was formed using aluminum chloride dissolved in TFA and diluted with dry MeCN, and it is likely that HCl was produced in situ, and that this is protonating the ligand.

[2] = Normalized emission spectra of D1 (L) and complexes in the solid state (FIG. 23)
Source text: The y-axis is luminescence intensity, and the x-axis is wavelength in nanometers. The free ligand L had maximum emission at 457 nm. The L+Ca complex had maximum emission at 519 nm. The L+Zn complex had maximum emission at 556 nm. Al/H^+ complex had maximum emission at 651 nm. This latter complex is a protonated ligand obtained by using aluminum perchlorate, which produced acid in situ.
The curve labeled Al/H+(N) was obtained by using protonated ligand obtained by treating the ligand with aluminum perchlorate.

[3] = Fluorescence color of D1 in acetonitrile solution with and without metal ions under UV 365 nm (FIG. 1); conditions: D1 0.004 M
Procedure: FIG. 1 is a set of pictures showing the change in color of derivative compound D1 in the absence and presence of various metal ions (Mg^2+, Sr^2+, Ca^2+, Cd^2+, Zn^2+, H^+) in solution. The solvent was acetonitrile, the concentration of D1 was 0.004 M, and the metal ion concentration was 0.04 M. The metal ions are added as perchlorates or acetates. The solutions were exposed to UV light having an excitation wavelength of 365 nm.
With no metal, the D1 solution was blue. With Mg^2+, the solution was a blue-green color. With Sr^2+, the solution was a green-blue color. With Ca^2+, the solution was a green color. With Cd^2+, the solution was an olive green color. With Zn^2+, the solution was a yellow-orange color. With H^+, the solution was a red color.

[4] = Fluorescence color of D1 in acetonitrile solution with one equivalent of metal perchlorate under UV 365 nm (FIG. 4)
Procedure: FIG. 4 is a set of pictures showing the change in color of derivative compound D1 in the absence and presence of various metal ions (Ca^2+, Zn^2+, H^+, Pb^2+) in solution (perchlorate salts), both under ordinary light and under UV light (365 nm). The solvent was acetonitrile, the concentration of D1 was 0.0001 M, and one equivalent of the metal perchlorate salt was added. For H^+, an aluminum perchlorate salt was used, which produced acid (H^+) that protonated the ligand.
Under UV light, the D1 solution alone is blue. With Ca(II), the solution is green. With Zn(II), the solution is yellow-orange. With Al(III) perchlorate, the solution is red. This red color resulted from an unexpected hydrolysis reaction that produced acid (H^+). The protonated ligand provided the red color. With Pb(II), the solution is black, i.e. the blue color that would other be visible has been quenched.

[5] = Fluorescence color in the solid state with and without metal ions or acids under UV 365 nm (FIGS. 2, 5, 6, 7, 24, 25)
Source text: FIG. 2 is a set of pictures showing the change in color of derivative compound D1 in the absence and presence of various metal ions (Ca^2+, Sr^2+, Cd^2+, Zn^2+, Ba^2+, Ha^+, Hb^+, Ni^2+) in the solid state. The sample labeled Ha^+ was isolated from a KOH/ethanol solution after treatment with trifluoroacetic acid (TFA). The sample labeled Hb^+ was obtained by using aluminum perchlorate, which produced acid (H^+) due to an unexpected hydrolysis reaction with the medium.
FIG. 5 is a set of pictures showing the change in color of derivative compound D1 in the absence and presence of various metal ions or acids (Ca^2+, Zn^2+, H^+, Pb^2+) in the solid state, both under ordinary light and under UV light (365 nm). Perchlorate salts were used. When the aluminum salt was used, an unexpected hydrolysis produced acid (H^+) which protonated the ligand.
FIG. 6 is a set of pictures showing the change in color of derivative compound D1 in the absence and presence of various metal ions or acids (H^+, Co^2+, Ni^2+, Cu^2+) in the solid state, both under ordinary light and under UV light (365 nm). Perchlorate salts were used.
FIG. 7 is a set of pictures showing the change in color of derivative compound D1 in the absence and presence of various metal ions or acids (AgNO3, Hg^2+, Pb^2+) and of the free compound D7 (no metal ion) in the solid state, both under ordinary light and under UV light (365 nm).
FIG. 24 is a set of pictures showing the change in color of complexes of D1 with perchlorate salts of various metal ions (Ca^2+, Sr^2+, Cd^2+) in the solid state, both under ordinary light and under UV light (365 nm).
FIG. 25 is a set of pictures showing the change in color of complexes of D1 with salts of various metal ions (Zn^2+, Ba^2+, Ha^+, Hb^+) in the solid state, both under ordinary light and under UV light (365 nm). The zinc and barium are perchlorate salts. The complex labeled “From KOH/EtOH/TFA” was obtained from a solution of KOH and ethanol upon addition of TFA. It is unclear what is causing the orange color, but it is most likely acid, therefore the label “Ha^+”. The HClO4 complex was obtained by using aluminum perchlorate, which produced acid (H^+) that protonated the ligand.
With no metal, the D1 powder was blue. With Ca^2+, the powder was a blue-green color. With Sr^2+, the powder was a green color. With Cd^2+, the powder was a yellow-green color. With Zn^2+, the powder was a yellow color. With Ba^2+, the powder was a dark yellow color. […] Powder isolated from solutions containing AlCl3 or Al(ClO4)3 was a red color. […] With Ni^2+, the powder was black (i.e. fluorescence was quenched).
FIG. 5 is a set of pictures showing fluorescence of D1 in the solid state, under ordinary light (top row) and under UV light (365 nm) (bottom row). In column A, the free ligand sample (i.e. no metal ions) is blue. In column B with Ca(II), the powder is green. In column C with Zn(II), the powder is yellow. In column D with Al(III), the powder is red. Again, this appears to be due to acid (H^+). In column E with Pb(II), the powder is non-fluorescent.
FIG. 6 is a set of pictures showing fluorescence of D1 in the solid state, under ordinary light (top row) and under UV light (365 nm) (bottom row). In the first column ligand treated with La(III) perchlorate produced a powder that fluoresces red. […] In the second column with Co(II), the powder is non-fluorescent. In the third column with Ni(II), the powder is non-fluorescent. In the fourth column with Cu(II), the powder is non-fluorescent.
FIG. 7 is a set of pictures showing fluorescence of D1 in the solid state, under ordinary light (top row) and under UV light (365 nm) (bottom row). In the first column with silver nitrate (AgNO3), the powder is non-fluorescent. […] In the third column with Pb(II), the powder is non-fluorescent. In the fourth column, the free compound D7 is shown, and is non-fluorescent. […]

[6] = Fluorescent properties of L4 in water/chloroform two-layer vials with metal ions and acid (FIG. 8)
Source text: FIG. 8 is a set of pictures showing the fluorescent properties of compound L4 in two different solvents (water and chloroform) in the presence of different metal ions o and acid (NaCl, CaCl2), HCl) under ordinary light and under UV light (365 nm). The concentration of L4 was 0.00032 M. Vial #2 used aqueous sodium chloride, Vial #3 included aqueous calcium chloride, and Vial #4 included dilute hydrochloric acid.
FIG. 8 is a set of pictures showing the fluorescent properties of compound L4 in two different solvents (water and chloroform) under ordinary light and under UV light (365 nm). Vial #1 contains only L4, Vial #2 contains sodium chloride, Vial #3 contains calcium chloride, and Vial #4 contains hydrochloric acid. The two layers in each vial were mixed, then allowed to separate and observed. […] There is no reaction to sodium in Vial #2. […] It is believed that this migration will only occur with a metal ion of the proper size and sufficiently high ionic charge. […] Interference from acid is, therefore, not expected to cause false positive results.

With `COc1cccc2cc3c(nc12)-c1nc2c(OC)cccc2cc1CC3` [Compound D1, 8,8′-Dimethoxy-3,3′-dimethylene-2,2′-biquinoline] the maximum emission [1] was 470 nm, the maximum emission [2] was 457 nm and the color of solution ([3]; Ca^2+ 0.04 M) was “green”. The color of solution ([3]; Cd^2+ 0.04 M) was “olive green”, the color of solution ([3]; H^+) was “red” and the color of solution ([3]; Mg^2+ 0.04 M) was “blue-green”. The color of solution ([3]; Sr^2+ 0.04 M) was “green-blue”, the color of solution ([3]; Zn^2+ 0.04 M) was “yellow-orange” and the color of solution ([3]; no metal) was “blue”. The “color of solution under UV light” value ([4]; D1 0.0001 M alone) was “blue”, the “color of solution under UV light” value ([4]; D1 0.0001 M, Al(III) perchlorate (produced acid H^+, protonated ligand)) was “red” and the “color of solution under UV light” value ([4]; D1 0.0001 M, one equivalent Ca(II) perchlorate) was “green”. For the same compound, the “color of solution under UV light” value ([4]; D1 0.0001 M, one equivalent Pb(II) perchlorate) was “black”, the “color of solution under UV light” value ([4]; D1 0.0001 M, one equivalent Zn(II) perchlorate) was “yellow-orange” and the fluorescence of powder ([5]; free compound (no metal ions)) was “blue”. The fluorescence of powder ([5]; from AlCl3 or Al(ClO4)3 (acid H^+, protonated ligand; Hb^+/HClO4)) was “red”, the fluorescence of powder ([5]; isolated from ethanolic KOH treated with TFA (Ha^+)) was “orange” and the fluorescence of powder ([5]; treated with La(III) perchlorate (acid H^+, protonated ligand)) was “red”. For the same compound, the fluorescence of powder ([5]; with Ca^2+) was “blue-green”, the fluorescence of powder ([5]; with Cd^2+) was “yellow-green” and the fluorescence of powder ([5]; with Co(II)) was “non-fluorescent”. The fluorescence of powder ([5]; with Cu(II)) was “non-fluorescent”, the fluorescence of powder ([5]; with Hg(II)) was “barely fluoresces” and the fluorescence of powder ([5]; with Ni^2+) was “black; also recorded: non-fluorescent”. For the same compound, the fluorescence of powder ([5]; with Pb(II)) was “non-fluorescent”, the fluorescence of powder ([5]; with Sr^2+) was “green” and the fluorescence of powder ([5]; with Zn^2+) was “yellow”. For the same compound, the fluorescence of powder ([5]; with silver nitrate (AgNO3)) was “non-fluorescent”.
In the case of `CCCCc1c2c(nc3c1CCc1cc4cccc(OCC(=O)OC)c4nc1-3)-c1nc3c(OCC(=O)OC)cccc3cc1CC2` [Compound L4, 8-butyl-1,15-bis(methoxycarbonylmethoxy)-diquinolino[2,3-c:3′,2′-h]-6,7,9,10-tetrahydroacridine], the “layer in which the compound is present” value ([6]; Vial #1, only L4 0.00032 M) is reported as “chloroform layer”, the response to sodium ([6]; Vial #2, aqueous sodium chloride, L4 0.00032 M) is reported as “no reaction” and the “migration of the complex between layers” value ([6]; Vial #3, aqueous calcium chloride) is reported as “migrated to the water layer”. For the same compound, the fluorescent response ([6]; Vial #3, aqueous calcium chloride (Ca^2+), UV 365 nm) was “intense blue” and the fluorescence ([6]; Vial #4, dilute hydrochloric acid, UV 365 nm) was “green”.
